This data set deals with tobacco budworm (Heliothis virescens [Fabricius]). As to the kind of experiment: surface-treated diet test against tobacco budworm. It is filed as in vivo. Conditions: 0.25 millimolar candidate insecticide on the surface of the diet, second instar larvae, five-day exposure; for Percent Mortality: compared to total number of insects infested; for Percent Growth Inhibition: inhibition of insect weight relative to untreated controls. How it is done:
Candidate insecticides were evaluated for activity against the tobacco budworm (Heliothis virescens [Fabricius]) in a surface-treated diet test.
In this test one mL of molten (65-70° C.) wheat germ-based artificial diet was pipetted into each well of a four by six (24 well) multi-well plate (ID# 430345-15.5 mm dia.×17.6 mm deep; Corning Costar Corp., One Alewife Center, Cambridge, Mass. 02140). The diet was allowed to cool to ambient temperature before treatment with candidate insecticide.
For a determination of insecticidal activity, solutions of the candidate insecticides were prepared for testing using a Packard 204DT Multiprobe® Robotic System (Packard Instrument Company, 800 Research Parkway, Meriden, Conn. 06450), in which the robot first diluted a standard 50 millimolar DMSO solution of candidate insecticide with a 1:1 water/acetone solution (V/V) in a ratio of 1:7 stock solution to water/acetone. The robot subsequently pipetted 40 microliters of the so-prepared solution onto the surface of the diet in each of three wells in the 24 multi-well plate. The process was repeated with solutions of seven other candidate insecticides. Once treated, the contents of the multi-well plate were allowed to dry, leaving 0.25 millimoles of candidate insecticide on the surface of the diet, or a concentration of 0.25 millimolar. Appropriate untreated controls containing only DMSO on the diet surface were also included in this test.
For evaluations of the insecticidal activity of a candidate insecticide at varying rates of application, the test was established as described above using sub-multiples of the standard 50 millimolar DMSO solution of candidate insecticide. For example, the standard 50 millimolar solution was diluted by the robot with DMSO to give 5, 0.5, 0.05, 0.005, 0.0005 millimolar, or more dilute solutions of the candidate insecticide. In these evaluations there were six replicates of each rate of application placed on the surface of the diet in the 24 multi-well plate, for a total of four rates of application of candidate insecticide in each plate.
In each well of the test plate was placed one second instar tobacco budworm larvea, each weighing approximately five milligrams. After the larvae were placed in each well, the plate was sealed with clear polyfilm adhesive tape. The tape over each well was perforated to ensure an adequate air supply. The plates were then held in a growth chamber at 25° C. and 60% relative humidity for five days (light 14 hours/day).
After the five-day exposure period insecticidal activity for each rate of application of candidate insecticide was assessed as percent inhibition of insect weight relative to the weight of insects from untreated controls, and percent mortality when compared to the total number of insects infested.

Each structure is given as a SMILES string.

Take `O=c1n(CCCCOc2c(Cl)cc(OCC=C(Cl)Cl)cc2Cl)cnn1-c1ccc(C(F)(F)F)cc1` [Compound 107, 4-{4-[4-(3,3-Dichloroprop-2-enyloxy)-2,6-dichlorophenoxy]butyl}-1-[4-(trifluoromethyl)-phenyl]-1,2,4-triazolin-5-one]: the “Percent Mortality” value turned out to be 100% and the “Percent Growth Inhibition” value turned out to be 100%.

On to `O=c1n(CCCCOc2c(Cl)cc(OCC=C(Cl)Cl)cc2Cl)cnn1-c1cc(Cl)cc(Cl)c1` [Compound 81], for which the “Percent Mortality” value came to 100% and the “Percent Growth Inhibition” value turned out to be 100%.

On to `O=c1n(CCCCOc2c(Cl)cc(OCC=C(Cl)Cl)cc2Cl)cnn1-c1ccc(I)cc1` [Compound 90], for which the “Percent Mortality” value was 100% and the “Percent Growth Inhibition” value is listed as 100%.

For `O=c1n(CCCCOc2c(Cl)cc(OCC=C(Cl)Cl)cc2Cl)cnn1-c1cccc(Cl)c1` [Compound 75], the “Percent Mortality” value is 100% and the “Percent Growth Inhibition” value stood at 100%.

Turning to `O=c1n(CCOc2c(Cl)cc(OCC=C(Cl)Cl)cc2Cl)nnn1-c1cccc(Cl)c1` [Compound 308], the “Percent Mortality” value was determined as 100% and the “Percent Growth Inhibition” value turned out to be 100%.

Turning to `O=c1n(-c2ccc(Cl)cc2)cnn1CCCCOc1c(Cl)cc(OCC=C(Cl)Cl)cc1Cl` [Compound 41], the “Percent Mortality” value was determined as 100% and the “Percent Growth Inhibition” value was found to be 100%.

With `Cc1ccc(-n2ncn(CCCCOc3c(Cl)cc(OCC=C(Cl)Cl)cc3Cl)c2=O)cc1C` [Compound 99], the “Percent Mortality” value was 100% and the “Percent Growth Inhibition” value is 100%.

`Cc1nn(-c2ccc(Cl)cc2F)c(=O)n1CCCCOc1c(Cl)cc(OCC=C(Cl)Cl)cc1Cl` [Compound 123]: the “Percent Mortality” value stood at 100% and the “Percent Growth Inhibition” value came to 100%.

Turning to `O=c1cnn(-c2ccc(F)cc2F)c(=O)n1CCCCOc1c(Cl)cc(OCC=C(Cl)Cl)cc1Cl` [Compound 653], the “Percent Mortality” value is reported as 100% and the “Percent Growth Inhibition” value amounted to 100%.

In the case of `O=c1n(CCCCOc2c(Cl)cc(OCC=C(Cl)Cl)cc2Cl)nnn1-c1ccc(Cl)cc1` [Compound 300], the “Percent Mortality” value came out at 100% and the “Percent Growth Inhibition” value was 100%.

Consider `O=c1cnn(-c2ccccc2)c(=O)n1CCCCOc1c(Cl)cc(OCC=C(Cl)Cl)cc1Cl` [Compound 657], for which the “Percent Mortality” value is reported as 100% and the “Percent Growth Inhibition” value was determined as 100%.

Take `Cc1ccc(-n2ncn(CCCCOc3c(Cl)cc(OCC=C(Cl)Cl)cc3Cl)c2=O)cc1Cl` [Compound 101]: the “Percent Mortality” value was determined as 100% and the “Percent Growth Inhibition” value was 100%.

As for `Cc1ccc(-n2ncn(CCCCOc3c(Cl)cc(OCC=C(Cl)Cl)cc3Cl)c2=O)cc1` [Compound 86], the “Percent Mortality” value amounted to 100% and the “Percent Growth Inhibition” value worked out at 100%.

Consider `O=c1n(CCCCOc2c(Cl)cc(OCC=C(Cl)Cl)cc2Cl)cnn1-c1ccc(Cl)c(Cl)c1` [Compound 80], for which the “Percent Mortality” value came to 100% and the “Percent Growth Inhibition” value worked out at 100%.

In the case of `O=c1n(CCCCOc2c(Cl)cc(OCC=C(Cl)Cl)cc2Cl)nnn1Cc1ccccc1Cl` [Compound 513], the “Percent Mortality” value stood at 100% and the “Percent Growth Inhibition” value was found to be 100%.

For the compound `O=c1cnn(-c2ccc(Cl)c(Cl)c2)c(=O)n1CCCCOc1c(Cl)cc(OCC=C(Cl)Cl)cc1Cl` [Compound 647], the “Percent Mortality” value amounted to 100% and the “Percent Growth Inhibition” value amounted to 100%.

On to `O=c1n(CCCCOc2c(Cl)cc(OCC=C(Cl)Cl)cc2Cl)ccn1-c1ccc(Cl)cc1` [Compound 4], for which the “Percent Mortality” value was determined as 100% and the “Percent Growth Inhibition” value came out at 100%.

In the case of `O=c1n(CCCCOc2c(Cl)cc(OCC=C(Cl)Cl)cc2Cl)cnn1-c1ccc(Br)cc1` [Compound 104], the “Percent Mortality” value came out at 100% and the “Percent Growth Inhibition” value is on record as 100%.

In the case of `O=c1n(Cc2ccc(C(F)(F)F)cc2)cnn1CCCCOc1c(Cl)cc(OCC=C(Cl)Cl)cc1Cl` [Compound 546], the “Percent Mortality” value is on record as 100% and the “Percent Growth Inhibition” value is on record as 100%.

Regarding `Cc1nn(-c2ccc(Cl)cc2)c(=O)n1CCCCOc1c(Cl)cc(OCC=C(Cl)Cl)cc1Cl` [Compound 113], the “Percent Mortality” value was 100% and the “Percent Growth Inhibition” value is 100%.

`O=c1n(CCCCOc2c(Cl)cc(OCC=C(Cl)Cl)cc2Cl)nnn1Cc1ccccc1` [Compound 512]: the “Percent Mortality” value was determined as 100% and the “Percent Growth Inhibition” value amounted to 100%.

For `O=c1n(CCCCOc2c(Cl)cc(OCC=C(Cl)Cl)cc2Cl)nnn1-c1ccc(C(F)(F)F)cc1` [Compound 293], the “Percent Mortality” value worked out at 100% and the “Percent Growth Inhibition” value stood at 100%.

For the compound `Cc1cc(C)cc(-n2ncn(CCCCOc3c(Cl)cc(OCC=C(Cl)Cl)cc3Cl)c2=O)c1` [Compound 100], the “Percent Mortality” value was determined as 100% and the “Percent Growth Inhibition” value is recorded as 100%.

Consider `Cc1nn(-c2ccc(Cl)cc2Cl)c(=O)n1CCCCOc1c(Cl)cc(OCC=C(Cl)Cl)cc1Cl` [Compound 118], for which the “Percent Mortality” value is listed as 100% and the “Percent Growth Inhibition” value stood at 100%.

As to `O=c1n(CCCCOc2c(Cl)cc(OCC=C(Cl)Cl)cc2Cl)cnn1-c1cccc(Cl)c1Cl` [Compound 76], the “Percent Mortality” value was determined as 100% and the “Percent Growth Inhibition” value amounted to 100%.

With `O=c1n(CCCOc2c(Cl)cc(OCC=C(Cl)Cl)cc2Cl)nnn1Cc1ccccc1Cl` [Compound 523], the “Percent Mortality” value is 100% and the “Percent Growth Inhibition” value came out at 100%.

Consider `O=c1cnn(-c2cccc(Cl)c2)c(=O)n1CCCCOc1c(Cl)cc(OCC=C(Cl)Cl)cc1Cl` [Compound 650], for which the “Percent Mortality” value is 100% and the “Percent Growth Inhibition” value was 100%.

As for `O=c1n(CCOc2c(Cl)cc(OCC=C(Cl)Cl)cc2Cl)nnn1Cc1ccccc1Cl` [Compound 522], the “Percent Mortality” value is listed as 50% and the “Percent Growth Inhibition” value is given as 100%.

Regarding `O=c1n(CCCOc2c(Cl)cc(OCC=C(Cl)Cl)cc2Cl)cnn1-c1ccc(C(F)(F)F)cc1` [Compound 106], the “Percent Mortality” value amounted to 100% and the “Percent Growth Inhibition” value came out at 100%.

Values taken from patent publication US7713970B2, “Substituted cyclic urea derivatives” (FMC Corporation, priority 2004, dated 2010).
